Data as given in US7612064B2, “Sulfopyrroles” (Takeda Pharmaceutical Company Limited, priority 2003, dated 2009).

What was measured:
Jily = experiment: MTS proliferation assay; format: cell-based; conditions: 72 h
Outline: (§1)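 Cells exposed 72 h under culture conditions to compound at 10, 3, 1 and 0.3 μM final, added in medium with max 5% DMSO. MTS reagent then added for a further 3 h and absorbance read at 492 nm.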

MRC5 = experiment: MTS proliferation assay; format: cell-based; conditions: MRC5, 72 h
Outline: as §1

[1] = Hoechst 33342 nuclear staining; format: cell-based; conditions: for Hoechst 33342 nuclear staining score, H460: H460 cells; for Hoechst 33342 nuclear staining score, HeLa: HeLa cells; for Hoechst 33342 nuclear staining score, Jily: Jily cells; for Hoechst 33342 nuclear staining score, Jurkat: Jurkat cells; for Hoechst 33342 nuclear staining score, MRC5: MRC5 cells; as to Hoechst 33342 nuclear staining score, PBLs: key: 0: no activity; 1: weak activity comprising less than 50% of the cells; 2: strong activity comprising more than 50% of the cells;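 as to all read-outs here: apoptotic nuclei scored 0 none 1 weak under 50% of cells 2 strong over 50% of cells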
Outline: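 Cells were plated in 96 well tissue culture plates in 80 μl complete medium, with 3-5*10^3 cells per well for adherent lines and 8-10*10^3 for suspension lines. Adherent cells spread for 24 h before treatment, while suspension cells were treated right after seeding. Compounds were added in 20 μl complete medium containing max 5% DMSO.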

Jurkat = experiment: MTS proliferation assay; format: cell-based, human; conditions: 72 h
Outline: as §1

HeLa = experiment: MTS proliferation assay; format: cell-based, human; conditions: 72 h
Outline: as §1

Compound | IC50 (Jily) | IC50 (MRC5) | Hoechst 33342 nuclear staining score, H460 ([1]; conc 0.1) | Hoechst 33342 nuclear staining score, H460 ([1]; conc 0.3) | Hoechst 33342 nuclear staining score, H460 ([1]; conc 1) | Hoechst 33342 nuclear staining score, H460 ([1]; conc 3) | Hoechst 33342 nuclear staining score, HeLa ([1]; conc 0.1) | Hoechst 33342 nuclear staining score, HeLa ([1]; conc 0.3) | Hoechst 33342 nuclear staining score, HeLa ([1]; conc 1) | Hoechst 33342 nuclear staining score, HeLa ([1]; conc 3) | Hoechst 33342 nuclear staining score, Jurkat ([1]; conc 0.1) | Hoechst 33342 nuclear staining score, Jurkat ([1]; conc 0.3) | Hoechst 33342 nuclear staining score, Jurkat ([1]; conc 1) | Hoechst 33342 nuclear staining score, Jurkat ([1]; conc 3) | Hoechst 33342 nuclear staining score, PBLs ([1]; conc 0.1) | Hoechst 33342 nuclear staining score, PBLs ([1]; conc 0.3) | Hoechst 33342 nuclear staining score, PBLs ([1]; conc 1) | Hoechst 33342 nuclear staining score, PBLs ([1]; conc 3) | IC50 (Jurkat) | IC50 (HeLa) | further results
COc1cc(-c2cc(-c3cncc(C(=O)NCCN4CCOCC4)c3)cn2S(=O)(=O)c2ccc(C)cc2)cc(OC)c1OC.Cl [Example 64] | < 1000 nM | < 1000 nM | 0 | 0 | 2 (strong activity comprising more than 50% of the cells) | 2 (strong activity comprising more than 50% of the cells) | 0 | 0 | 2 (strong activity comprising more than 50% of the cells) | 2 (strong activity comprising more than 50% of the cells) | 0 | 0 | 2 (strong activity comprising more than 50% of the cells) | 2 (strong activity comprising more than 50% of the cells) | 0 | 0 | 0 | 0 | < 1000 nM | < 1000 nM | Hoechst 33342 nuclear staining score, Jily ([1]; conc 0.1): 0; Hoechst 33342 nuclear staining score, Jily ([1]; conc 0.3): 0; Hoechst 33342 nuclear staining score, Jily ([1]; conc 1): 2 (strong activity comprising more than 50% of the cells); Hoechst 33342 nuclear staining score, Jily ([1]; conc 3): 2 (strong activity comprising more than 50% of the cells); Hoechst 33342 nuclear staining score, MRC5 ([1]; conc 0.1): 0; Hoechst 33342 nuclear staining score, MRC5 ([1]; conc 0.3): 0; Hoechst 33342 nuclear staining score, MRC5 ([1]; conc 1): 2 (strong activity comprising more than 50% of the cells); Hoechst 33342 nuclear staining score, MRC5 ([1]; conc 3): 2 (strong activity comprising more than 50% of the cells)
COc1cc(-c2cc(-c3cncc(CN)c3)cn2S(=O)(=O)c2ccc(C)cc2)cc(OC)c1OC [Example 58] | < 1000 nM | > 1000 nM | 0 | 0 | 2 (strong activity comprising more than 50% of the cells) | 2 (strong activity comprising more than 50% of the cells) | 0 | 0 | 2 (strong activity comprising more than 50% of the cells) | 2 (strong activity comprising more than 50% of the cells) | 0 | 2 (strong activity comprising more than 50% of the cells) | 2 (strong activity comprising more than 50% of the cells) | 2 (strong activity comprising more than 50% of the cells) | 0 | 0 | 0 | 0 | < 1000 nM | < 1000 nM | Hoechst 33342 nuclear staining score, Jily ([1]; conc 0.1): 0; Hoechst 33342 nuclear staining score, Jily ([1]; conc 0.3): 0; Hoechst 33342 nuclear staining score, Jily ([1]; conc 1): 2 (strong activity comprising more than 50% of the cells); Hoechst 33342 nuclear staining score, Jily ([1]; conc 3): 2 (strong activity comprising more than 50% of the cells); Hoechst 33342 nuclear staining score, MRC5 ([1]; conc 0.1): 0; Hoechst 33342 nuclear staining score, MRC5 ([1]; conc 0.3): 0; Hoechst 33342 nuclear staining score, MRC5 ([1]; conc 1): 1 (weak activity comprising less than 50% of the cells); Hoechst 33342 nuclear staining score, MRC5 ([1]; conc 3): 2 (strong activity comprising more than 50% of the cells)
COc1cc(-c2cc(-c3ccc(S(N)(=O)=O)cc3)cn2S(=O)(=O)c2ccc(C)cc2)cc(OC)c1OC [Example 57] | < 1000 nM | < 1000 nM |  |  |  |  | 0 | 0 | 0 | 2 (strong activity comprising more than 50% of the cells) | 0 | 0 | 1 (weak activity comprising less than 50% of the cells) | 2 (strong activity comprising more than 50% of the cells) | 0 | 0 | 0 | 0 | < 200 nM | < 1000 nM | 
COc1ccc(S(=O)(=O)n2cc(-c3ccc(N)nc3)cc2-c2ccc(OC)cc2OC)cc1 [Example 102] | < 1000 nM | > 1000 nM | 0 | 0 | 1 (weak activity comprising less than 50% of the cells) | 2 (strong activity comprising more than 50% of the cells) | 0 | 0 | 1 (weak activity comprising less than 50% of the cells) | 2 (strong activity comprising more than 50% of the cells) | 0 | 0 | 2 (strong activity comprising more than 50% of the cells) | 2 (strong activity comprising more than 50% of the cells) | 0 | 0 | 0 | 0 | < 1000 nM | > 1000 nM | Hoechst 33342 nuclear staining score, Jily ([1]; conc 0.1): 0; Hoechst 33342 nuclear staining score, Jily ([1]; conc 0.3): 0; Hoechst 33342 nuclear staining score, Jily ([1]; conc 1): 2 (strong activity comprising more than 50% of the cells); Hoechst 33342 nuclear staining score, Jily ([1]; conc 3): 2 (strong activity comprising more than 50% of the cells); Hoechst 33342 nuclear staining score, MRC5 ([1]; conc 0.1): 0; Hoechst 33342 nuclear staining score, MRC5 ([1]; conc 0.3): 0; Hoechst 33342 nuclear staining score, MRC5 ([1]; conc 1): 0; Hoechst 33342 nuclear staining score, MRC5 ([1]; conc 3): 2 (strong activity comprising more than 50% of the cells)
COc1cc(-c2cc(-c3cccnc3)cn2S(=O)(=O)Cc2ccccc2)cc(OC)c1OC [Example 88] | > 1000 nM | > 1000 nM | 0 | 0 | 0 | 0 | 0 | 0 | 0 | 0 | 0 | 0 | 0 | 0 | 0 | 0 | 0 | 0 | > 1000 nM | > 1000 nM | Hoechst 33342 nuclear staining score, Jily ([1]; conc 0.1): 0; Hoechst 33342 nuclear staining score, Jily ([1]; conc 0.3): 0; Hoechst 33342 nuclear staining score, Jily ([1]; conc 1): 0; Hoechst 33342 nuclear staining score, Jily ([1]; conc 3): 0; Hoechst 33342 nuclear staining score, MRC5 ([1]; conc 0.1): 0; Hoechst 33342 nuclear staining score, MRC5 ([1]; conc 0.3): 0; Hoechst 33342 nuclear staining score, MRC5 ([1]; conc 1): 0; Hoechst 33342 nuclear staining score, MRC5 ([1]; conc 3): 0
COc1cc(-c2cc(-c3cncc(CNC(C)=O)c3)cn2S(=O)(=O)c2ccc(C)cc2)cc(OC)c1OC [Example 60] | < 1000 nM | < 1000 nM | 0 | 0 | 2 (strong activity comprising more than 50% of the cells) | 2 (strong activity comprising more than 50% of the cells) | 0 | 0 | 1 (weak activity comprising less than 50% of the cells) | 2 (strong activity comprising more than 50% of the cells) | 0 | 2 (strong activity comprising more than 50% of the cells) | 2 (strong activity comprising more than 50% of the cells) | 2 (strong activity comprising more than 50% of the cells) | 0 | 0 | 0 | 0 | < 1000 nM | < 1000 nM | Hoechst 33342 nuclear staining score, Jily ([1]; conc 0.1): 0; Hoechst 33342 nuclear staining score, Jily ([1]; conc 0.3): 0; Hoechst 33342 nuclear staining score, Jily ([1]; conc 1): 2 (strong activity comprising more than 50% of the cells); Hoechst 33342 nuclear staining score, Jily ([1]; conc 3): 2 (strong activity comprising more than 50% of the cells); Hoechst 33342 nuclear staining score, MRC5 ([1]; conc 0.1): 0; Hoechst 33342 nuclear staining score, MRC5 ([1]; conc 0.3): 0; Hoechst 33342 nuclear staining score, MRC5 ([1]; conc 1): 0; Hoechst 33342 nuclear staining score, MRC5 ([1]; conc 3): 2 (strong activity comprising more than 50% of the cells)
